Where “and” joins values, the source holds several entries; their conditions need not be identical. Identical values can stand only once.

In one assay the test system is pre-LSC activity of Lmo2^Tg DN3a thymocytes. Briefly: Transplantation of in vitro treated Lmo2^Tg DN3a thymocytes (fold expansion, engraftment). In kind it is in vivo, mouse. The conditions noted are these: thymus of recipients 6 weeks post-transplantation of Lmo2^Tg DN3a thymocytes treated in vitro (Dynole 34-2 0.2 μM, Ruxolitinib 0.2 μM, DAPT 0.1 μM); individual recipients. The protocol:
Single-cell suspension of murine thymus cells were intravenously injected into sublethally irradiated (650 Rads) isogenic Ly5.1 (Cd45.1) mice. Fold expansion was calculated by dividing the absolute output number of donor-derived DN3a cells harvested at the experimental endpoint by the respective number of DN3a thymocytes injected in each recipient. Limiting dilution transplantations were performed as described, by injecting various doses (10^1 to 10^6) of thymocytes per recipient, and mice were scored positive when T-cell lineage reconstitution assessed 6 weeks after transplantation was >1%. Leukemia-propagating cell frequency was calculated by applying Poisson statistics using the ELDA: Extreme Limiting Dilution Analysis software (Walter and Eliza Hall Institute Bioinformatics, Parkville VIC, Australia)[96]. Limiting dilution transplantations were performed independently from any other transplantation assays, using thymocytes from three different Lmo2^Tg mice for each cohort. Kaplan–Meier survival and statistical analysis were performed using GraphPad Prism. 6.0 software (GraphPad Software Inc, San Diego CA, USA).
With `C[C@H](NC(=O)Cc1cc(F)cc(F)c1)C(=O)N[C@H](C(=O)OC(C)(C)C)c1ccccc1` [DAPT, N-[N-(3,5-Difluorophenacetyl)-L-alanyl]-S-phenylglycine t-butyl ester], the “Fold expansion DN3a cells” value was 0.05 fold and 0.01 fold and 0.07 fold and 2.41 fold and 0.20 fold and 11.64 fold.

Take `N#CC[C@H](C1CCCC1)n1cc(-c2ncnc3[nH]ccc23)cn1` [Ruxolitinib]: the “Fold expansion DN3a cells” value was 0.06 fold and 0.01 fold and 5.29 fold and 8.54 fold and 22.76 fold and 8.51 fold.

Take `CCCCCCCCNC(=O)C(C#N)=Cc1cn(CCCN(C)C)c2ccccc12` [Dynole 34-2, 2-Cyano-N-octyl-3-(1-(3-dimethylaminopropyl)-1H-indol-3-yl)-acrylamide]: the “Fold expansion DN3a cells” value was 0.05 fold and 0.01 fold and 3.00 fold and 6.41 fold and 5.91 fold and 0.19 fold and 17.69 fold.

The next assay deals with pStat5 in leukemic DN3a cells from primary Lmo2^Tg T-ALL. Description: IL-7-induced pStat5 in leukemic DN3a cells from primary Lmo2^Tg T-ALL. It counts as cell-based, mouse. The conditions noted are these: leukemic DN3a cells of TALL249, IL-7 stimulation. As for the experimental part: Phosphoflow analysis was performed as previously described. Briefly, 2 × 10^6 cells stained for surface markers were subsequently resuspended into PBS 1× + 4% v/v paraformaldehyde and incubated for 10 min at 4 °C for fixation. Fixed cells were washed twice using PBS 1×, then resuspended in pre-chilled at −20 °C Perm Buffer III (BD Pharmingen) and incubated 30 min at 4 °C for permeabilization. Cells were washed twice using PBS 1× and incubated overnight at 4 °C in PBS 1× + 2% v/v fetal calf serum (FCS) with Cell Signalling purified antibodies (Genesearch Pty Ltd, Arundel QLD, Australia) against pSTAT5 (Tyr694; #9359), phospho-p38 MAPK (Thr180/Tyr182; #4511), phospho-p44/42 (Erk1/2; #9102), phospho-S6 (Ser235/236; #4856) and phospho-Akt (Ser473; #9271) or isotype control. For intracellular HES1 detection, cells stained for surface markers were subsequently fixed and permeabilized using the BD Cytofix/Cytoperm^TM Kit and incubated overnight at 4 °C in PBS 1× + 2% v/v FCS with a purified antibody against HES1 (D6PU; #11988, Cell Signalling) or isotype control. After staining with primary antibodies for phosphoflow or intracellular detection, cells were incubated in permeabilization buffer with donkey Alexa Fluor 488-conjugated anti-rabbit secondary antibody (A-21206, lot #1910751, Molecular Probes, Invitrogen) or goat Alexa Fluor 546-conjugated anti-rabbit secondary antibody (A-11035, lot #1904467, Molecular Probes, Invitrogen) for 1 h on ice, and washed twice in PBS 1×. Fluorescence-activated cell sorting (FACS) analysis was performed using LSRII and LSR Fortessa cytometers, following the gating strategies described in Supplementary Fig. 11. Cell sorting was performed with a FACSAria or BD Influx.
For in vitro IL-7 stimulation assays, cells were starved in serum-free DMEM at 37 °C, then incubated with either vehicle or Dynole 34-2 or Ruxolitinib (INCB018424; #S1378, Selleckchem), or DAPT (GSI-IX; #S2215, Selleckchem) resuspended in DMSO for 1 h. Thymocytes were subsequently stimulated with 25 ng/mL IL-7 at 37 °C for 20 min and washed twice using cold PBS 1×. Cells were incubated with 25 ng/mL Rat IgG (Sigma-Aldrich Pty Ltd, Castle Hill NSW, Australia) and with a PE-conjugated antibody for detection of IL-7R (CD127) for 1 h on ice, as described in the FACS analysis section. PE-conjugated isotype was used as negative control. Cells were washed twice, fixed and phosphoflow analysis performed as described in the FACS analysis section. The analysis was performed in triplicate and the mean fluorescence intensity (MFI) observed without stimulation was reported as 100%.
For `C[C@H](NC(=O)Cc1cc(F)cc(F)c1)C(=O)N[C@H](C(=O)OC(C)(C)C)c1ccccc1` [DAPT, N-[N-(3,5-Difluorophenacetyl)-L-alanyl]-S-phenylglycine t-butyl ester], the “pStat5 (MFI)” value was determined as 15113 MFI and the “pStat5, FOLD over unstimulated” value was 3.80 fold.

`N#CC[C@H](C1CCCC1)n1cc(-c2ncnc3[nH]ccc23)cn1` [Ruxolitinib]: the “pStat5 (MFI)” value stood at 2437 MFI and the “pStat5, FOLD over unstimulated” value worked out at 0.61 fold.

On to `CCCCCCCCNC(=O)C(C#N)=Cc1cn(CCCN(C)C)c2ccccc12` [Dynole 34-2, 2-Cyano-N-octyl-3-(1-(3-dimethylaminopropyl)-1H-indol-3-yl)-acrylamide], for which the “pStat5 (MFI)” value is 3097 MFI and the “pStat5, FOLD over unstimulated” value is listed as 0.78 fold.

Still in this assay, the particulars now being: leukemic DN3a cells of TALL257, IL-7 stimulation.
As to `C[C@H](NC(=O)Cc1cc(F)cc(F)c1)C(=O)N[C@H](C(=O)OC(C)(C)C)c1ccccc1` [DAPT, N-[N-(3,5-Difluorophenacetyl)-L-alanyl]-S-phenylglycine t-butyl ester], the “pStat5 (MFI)” value is on record as 2628 MFI and the “pStat5, FOLD over unstimulated” value stood at 1.69 fold.

In the case of `N#CC[C@H](C1CCCC1)n1cc(-c2ncnc3[nH]ccc23)cn1` [Ruxolitinib], the “pStat5 (MFI)” value was determined as 2111 MFI and the “pStat5, FOLD over unstimulated” value was determined as 1.36 fold.

On to `CCCCCCCCNC(=O)C(C#N)=Cc1cn(CCCN(C)C)c2ccccc12` [Dynole 34-2, 2-Cyano-N-octyl-3-(1-(3-dimethylaminopropyl)-1H-indol-3-yl)-acrylamide], for which the “pStat5 (MFI)” value came out at 1676 MFI and the “pStat5, FOLD over unstimulated” value is 1.08 fold.

Still in this assay, the particulars now being: leukemic DN3a cells of TALL273, IL-7 stimulation.
For `C[C@H](NC(=O)Cc1cc(F)cc(F)c1)C(=O)N[C@H](C(=O)OC(C)(C)C)c1ccccc1` [DAPT, N-[N-(3,5-Difluorophenacetyl)-L-alanyl]-S-phenylglycine t-butyl ester], the “pStat5 (MFI)” value amounted to 2744 MFI and the “pStat5, FOLD over unstimulated” value turned out to be 1.22 fold.

`N#CC[C@H](C1CCCC1)n1cc(-c2ncnc3[nH]ccc23)cn1` [Ruxolitinib]: the “pStat5 (MFI)” value was determined as 2300 MFI and the “pStat5, FOLD over unstimulated” value amounted to 1.02 fold.

`CCCCCCCCNC(=O)C(C#N)=Cc1cn(CCCN(C)C)c2ccccc12` [Dynole 34-2, 2-Cyano-N-octyl-3-(1-(3-dimethylaminopropyl)-1H-indol-3-yl)-acrylamide]: the “pStat5 (MFI)” value is 2251 MFI and the “pStat5, FOLD over unstimulated” value stood at 1.00 fold.

Still in this assay, the particulars now being: leukemic DN3a cells of TALL582, IL-7 stimulation.
`C[C@H](NC(=O)Cc1cc(F)cc(F)c1)C(=O)N[C@H](C(=O)OC(C)(C)C)c1ccccc1` [DAPT, N-[N-(3,5-Difluorophenacetyl)-L-alanyl]-S-phenylglycine t-butyl ester]: the “pStat5 (MFI)” value was determined as 34040 MFI and the “pStat5, FOLD over unstimulated” value was determined as 0.89 fold.

For the compound `N#CC[C@H](C1CCCC1)n1cc(-c2ncnc3[nH]ccc23)cn1` [Ruxolitinib], the “pStat5 (MFI)” value worked out at 33429 MFI and the “pStat5, FOLD over unstimulated” value was determined as 0.88 fold.

As to `CCCCCCCCNC(=O)C(C#N)=Cc1cn(CCCN(C)C)c2ccccc12` [Dynole 34-2, 2-Cyano-N-octyl-3-(1-(3-dimethylaminopropyl)-1H-indol-3-yl)-acrylamide], the “pStat5 (MFI)” value is recorded as 15189 MFI and the “pStat5, FOLD over unstimulated” value stood at 0.40 fold.

Staying with this assay, now noted: leukemic DN3a cells of TALL588, IL-7 stimulation.
Consider `C[C@H](NC(=O)Cc1cc(F)cc(F)c1)C(=O)N[C@H](C(=O)OC(C)(C)C)c1ccccc1` [DAPT, N-[N-(3,5-Difluorophenacetyl)-L-alanyl]-S-phenylglycine t-butyl ester], for which the “pStat5 (MFI)” value was found to be 3980 MFI and the “pStat5, FOLD over unstimulated” value is reported as 1.55 fold.

As for `N#CC[C@H](C1CCCC1)n1cc(-c2ncnc3[nH]ccc23)cn1` [Ruxolitinib], the “pStat5 (MFI)” value is 3772 MFI and the “pStat5, FOLD over unstimulated” value is listed as 1.47 fold.

`CCCCCCCCNC(=O)C(C#N)=Cc1cn(CCCN(C)C)c2ccccc12` [Dynole 34-2, 2-Cyano-N-octyl-3-(1-(3-dimethylaminopropyl)-1H-indol-3-yl)-acrylamide]: the “pStat5 (MFI)” value is recorded as 2662 MFI and the “pStat5, FOLD over unstimulated” value is listed as 1.03 fold.

Staying with this assay, now noted: leukemic DN3a cells of TALL742, IL-7 stimulation.
`C[C@H](NC(=O)Cc1cc(F)cc(F)c1)C(=O)N[C@H](C(=O)OC(C)(C)C)c1ccccc1` [DAPT, N-[N-(3,5-Difluorophenacetyl)-L-alanyl]-S-phenylglycine t-butyl ester]: the “pStat5 (MFI)” value was 7661 MFI and the “pStat5, FOLD over unstimulated” value was found to be 1.35 fold.

`N#CC[C@H](C1CCCC1)n1cc(-c2ncnc3[nH]ccc23)cn1` [Ruxolitinib]: the “pStat5 (MFI)” value was 5460 MFI and the “pStat5, FOLD over unstimulated” value is 0.96 fold.

`CCCCCCCCNC(=O)C(C#N)=Cc1cn(CCCN(C)C)c2ccccc12` [Dynole 34-2, 2-Cyano-N-octyl-3-(1-(3-dimethylaminopropyl)-1H-indol-3-yl)-acrylamide]: the “pStat5 (MFI)” value came out at 5864 MFI and the “pStat5, FOLD over unstimulated” value is reported as 1.03 fold.

(Values after publication PMC7719179, “Small molecule inhibition of Dynamin-dependent endocytosis targets multiple niche signals and impairs leukemia stem cells” (Nature Communications, 2020).)
